These results are taken from patent publication US11866414B2, “Substituted heterocyclic compounds” (BRISTOL-MYERS SQUIBB COMPANY, priority 2021, dated 2024).

Molecules are shown by their SMILES. Like-named read-outs stand apart in the source and are kept apart here.

The IC50 is the point on the concentration scale where inhibition reaches its midpoint. The Papp A→B is the apparent permeability from the apical to the basolateral side of a cell layer. The efflux ratio is the permeability from basolateral to apical divided by that in the opposite direction, in the common usage.

A short description of data set [1]: Brain penetration in vivo assay (brain and plasma exposure). The settings on record: C57BL6, brain / plasma, 10 mg/kg, mouse, 10 mpk, po, read-out: Ratio of exposure in brain to plasma (mouse) (1 h, 10 mpk, po). How it is done:
Brain Penetration In Vivo Assay
A pharmacokinetic study was performed using C57BL6 wild-type mice (n=3 per experiment) to determine brain and plasma exposure of compounds of the invention. The compound was administered orally in a solution of 5% ETHANOL: 90% PEG 300; 5% TPGS at 5 mL/kg for a final concentration of 10 mg/kg. Nice were euthanized 1 hour post-dose and plasma and brain were collected and frozen for analysis. Brain tissues were homogenized in a 1:1 volume of blank C57BL6 mouse plasma. Concentrations of the compound in plasma and brain homogenate were determined by LC-MS analysis.

Data set [2] relates to IFNα-induced STAT phosphorylation (pSTAT5). The data set is described as follows: IFNα-induced STAT phosphorylation in human whole blood. The data set is classed as cell-based. The settings on record: 1 h compound, 1000 U/mL IFNα A/D 15 min, CD3 positive population, read-out: Human Whole blood IFNa pSTAT5 IC50.
Data set [3] can be described thus: in vitro. The settings on record: human, Caco-2, pH 7.4.
For data set [4], the system named is Caco-2 cells. To be noted: human, Caco-2, 2 h, 3 μM, pH 7.4.

Turning to `[2H]C([2H])([2H])NC(=O)c1nnc(NC(=O)C2CC2)cc1Nc1cccc(-c2ncn(C3CC3)n2)c1OC` [B, reference compound], the Kp at 1 h in data set [1] (Table 4, comparison of CNS penetration with prior art) came to 0.02.

On to `[2H]C([2H])([2H])NC(=O)c1nnc(NC(=O)C2CC2)cc1Nc1cccc(-c2cnn(CC)n2)c1OC` [Example 1, 6-(cyclopropanecarboxamido)-4-((2-methoxy-3-(2-ethyl-2H-1,2,3-triazol-4-yl)phenyl)amino)-N-(methyl-d3)pyridazine-3-carboxamide], for which, in data set [2], the IC50 came to 260 nM. The Kp at 1 h in data set [1] is 0.7. In data set [3], the apparent permeability from apical to basolateral (Papp A→B) at 2 h, 3 μM was found to be 29.1 ×10⁻⁶ cm/s and the efflux ratio at 2 h, 3 μM was 0.8.

With `[2H]C([2H])([2H])NC(=O)c1nnc(NC(=O)C2CC2)cc1Nc1cc(F)cc(-c2cnn(C)n2)c1OC` [Example 4, 6-cyclopropaneamido-4-{[5-fluoro-2-methoxy-3-(2-methyl-2H-1,2,3-triazol-4-yl)phenyl]amino}-N—(^2H3)methylpyridazine-3-carboxamide], the concentration for half-maximal inhibition (IC50) in data set [2] is 290 nM. Also, in data set [1], the Kp at 1 h turned out to be 0.8. In addition, in data set [3], the Papp A→B at 2 h, 3 μM was 32.7 ×10⁻⁶ cm/s and the efflux ratio at 2 h, 3 μM was found to be 0.6.

On to `[2H]C([2H])([2H])NC(=O)c1nnc(Nc2ccc(OC)nn2)cc1Nc1cccc(-c2cnn(C)n2)c1OC` [Example 5, 4-{[2-methoxy-3-(2-methyl-2H-1,2,3-triazol-4-yl)phenyl]amino}-6-[(6-methoxypyridazin-3-yl)amino]-N—(^2H3)methylpyridazine-3-carboxamide], for which the half-maximal inhibitory concentration (IC50) in data set [2] was found to be 60 nM. The Kp at 1 h in data set [1] was 0.2. In data set [3], the apical-to-basolateral permeability (Papp A→B) at 2 h, 3 μM came to 20.9 ×10⁻⁶ cm/s and the efflux ratio at 2 h, 3 μM was found to be 0.9.

Take `[2H]C([2H])([2H])NC(=O)c1nnc(NC(=O)C2CC2)cc1Nc1cc(C)cc(-c2cnn(C3CC3)n2)c1OC` [Example 9, 6-cyclopropaneamido-4-{[3-(2-cyclopropyl-2H-1,2,3-triazol-4-yl)-2-methoxy-5-methylphenyl]amino}-N—(^2H3)methylpyridazine-3-carboxamide]: in data set [2], the 50% inhibitory concentration (IC50) amounted to 100 nM. Also, in data set [1], the Kp at 1 h amounted to 0.2. For the same compound, in data set [3], the Papp A→B at 2 h, 3 μM was 14 ×10⁻⁶ cm/s and the efflux ratio at 2 h, 3 μM was determined as 0.3.

Take `[2H]C([2H])([2H])NC(=O)c1nnc(NC(=O)C2CC2)cc1Nc1cccc(-c2cnn(C3CC3)n2)c1OC` [Example 11, 6-cyclopropaneamido-4-{[3-(2-cyclopropyl-2H-1,2,3-triazol-4-yl)-2-methoxyphenyl]amino}-N—(^2H3)methylpyridazine-3-carboxamide]: the 50% inhibitory concentration (IC50) in data set [2] is 120 nM. The Kp at 1 h in data set [1] turned out to be 0.5. In addition, in data set [3], the Papp A→B at 2 h, 3 μM came to 9.7 ×10⁻⁶ cm/s and the efflux ratio at 2 h, 3 μM was 0.7.

Regarding `[2H]C([2H])([2H])NC(=O)c1nnc(NC(=O)C2CC2)cc1Nc1cc(Cl)cc(-c2cnn(CC)n2)c1OC` [Example 15, 4-{[5-chloro-3-(2-ethyl-2H-1,2,3-triazol-4-yl)-2-methoxyphenyl]amino}-6-cyclopropaneamido-N—(^2H3)methylpyridazine-3-carboxamide], in data set [4], the “CACO2 (A-B)” value is reported as 63 nm/s.

As for `[2H]C([2H])([2H])NC(=O)c1nnc(NC(=O)C2CC2)cc1Nc1ccc(F)c(-c2cnn(C3CC3)n2)c1OC` [Example 16, 6-cyclopropaneamido-4-{[3-(2-cyclopropyl-2H-1,2,3-triazol-4-yl)-4-fluoro-2-methoxyphenyl]amino}-N—(^2H3)methylpyridazine-3-carboxamide], the “CACO2 (A-B)” value in data set [4] was found to be 392 nm/s.

As for `[2H]C([2H])([2H])NC(=O)c1nnc(NC(=O)C2CC2)cc1Nc1ccc(F)c(-c2cnn(C)n2)c1OC` [Example 18, 6-cyclopropaneamido-4-{[4-fluoro-2-methoxy-3-(2-methyl-2H-1,2,3-triazol-4-yl)phenyl]amino}-N—(^2H3)methylpyridazine-3-carboxamide], in data set [4], the “CACO2 (A-B)” value was found to be 654 nm/s.

With `[2H]C([2H])([2H])NC(=O)c1nnc(NC(=O)C2CC2)cc1Nc1cc(OC)cc(-c2cnn(C)n2)c1OC` [Example 24, 6-(cyclopropane-carboxamido)-4-((2,5-dimethoxy-3-(2-methyl-2H-1,2,3-triazol-4-yl)phenyl)amino)-N-(methyl-d3)pyridazine-3-carboxamide], the half-maximal inhibitory concentration (IC50) in data set [2] is 120 nM. The Kp at 1 h in data set [1] was determined as 0.2. Besides, in data set [3], the apparent permeability from apical to basolateral (Papp A→B) at 2 h, 3 μM came out at 33 ×10⁻⁶ cm/s and the efflux ratio at 2 h, 3 μM amounted to 0.5.

As for `[2H]C([2H])([2H])NC(=O)c1nnc(NC(=O)C2CC2)cc1Nc1nccc(-c2cnn(C)n2)c1OC` [Example 36, 6-(cyclopropanecarboxamido)-4-((3-methoxy-4-(2-methyl-2H-1,2,3-triazol-4-yl)pyridin-2-yl)amino)-N-(methyl-d3)pyridazine-3-carboxamide], the IC50 in data set [2] amounted to 50 nM. In addition, the Kp at 1 h in data set [1] is 0.8. Besides, in data set [3], the apparent permeability from apical to basolateral (Papp A→B) at 2 h, 3 μM was found to be 32.8 ×10⁻⁶ cm/s and the efflux ratio at 2 h, 3 μM was 0.6.

Regarding `[2H]C([2H])([2H])NC(=O)c1nnc(NC(=O)[C@@H]2C[C@@H]2F)cc1Nc1nccc(-c2cnn(C)n2)c1OC` [Example 37, 6-((1S,2S)-2-fluorocyclopropane-1-carboxamido)-4-((3-methoxy-4-(2-methyl-2H-1,2,3-triazol-4-yl)pyridin-2-yl)amino)-N-(methyl-d3)pyridazine-3-carboxamide], the IC50 in data set [2] turned out to be 20 nM. For the same compound, in data set [1], the Kp at 1 h was determined as 0.1. Moreover, in data set [3], the Papp A→B at 2 h, 3 μM stood at 49.4 ×10⁻⁶ cm/s and the efflux ratio at 2 h, 3 μM was 0.9.

As to `[2H]C([2H])([2H])NC(=O)c1nnc(NC(=O)[C@@H]2C[C@H]2C)cc1Nc1nccc(-c2cnn(C)n2)c1OC` [Example 41, 4-((3-methoxy-4-(2-methyl-2H-1,2,3-triazol-4-yl)pyridin-2-yl)amino)-N-(methyl-d3)-6-((1R,2R)-2-methylcyclopropane-1-carboxamido)pyridazine-3-carboxamide], the IC50 in data set [2] was determined as 80 nM. Moreover, the Kp at 1 h in data set [1] came to 0.3. Moreover, in data set [3], the apparent permeability from apical to basolateral (Papp A→B) at 2 h, 3 μM was found to be 33.9 ×10⁻⁶ cm/s and the efflux ratio at 2 h, 3 μM is 0.5.

Regarding `[2H]C([2H])([2H])NC(=O)c1nnc(NC(=O)C2CC2)cc1Nc1cccc(-c2cnn(C([2H])([2H])[2H])n2)c1OC` [Example 52, 6-cyclopropaneamido-4-({2-methoxy-3-[2-(^2H3)methyl-2H-1,2,3-triazol-4-yl]phenyl}amino)-N—(^2H3)methylpyridazine-3-carboxamide], the “CACO2 (A-B)” value in data set [4] worked out at 482 nm/s.

For `[2H]C([2H])([2H])NC(=O)c1nnc(NC(=O)C2CC2)cc1Nc1cccc(-c2cnn(C3CCC3)n2)c1OC` [Example 54, 4-{[3-(2-cyclobutyl-2H-1,2,3-triazol-4-yl)-2-methoxyphenyl]amino}-6-cyclopropaneamido-N—(^2H3)methylpyridazine-3-carboxamide], the “CACO2 (A-B)” value in data set [4] stood at 180 nm/s.

Turning to `[2H]C([2H])([2H])NC(=O)c1nnc(NC(=O)C2CC2)cc1Nc1ccc(C2CC2)c(-c2cnn(C)n2)c1OC` [Example 55, 6-cyclopropaneamido-4-{[4-cyclopropyl-2-methoxy-3-(2-methyl-2H-1,2,3-triazol-4-yl)phenyl]amino}-N—(^2H3)methylpyridazine-3-carboxamide], the “CACO2 (A-B)” value in data set [4] is recorded as 507 nm/s.

Regarding `[2H]C([2H])([2H])NC(=O)c1nnc(Nc2ccc(N3CCOCC3)cn2)cc1Nc1nccc(-c2cnn(C)n2)c1OC` [Example 66, 4-{[3-methoxy-4-(2-methyl-2H-1,2,3-triazol-4-yl)pyridin-2-yl]amino}-N—(^2H3)methyl-6-{[5-(morpholin-4-yl)pyridin-2-yl]amino}pyridazine-3-carboxamide], the half-maximal inhibitory concentration (IC50) in data set [2] is 0.2 nM. Besides, in data set [3], the Papp A→B at 2 h, 3 μM was determined as 22.2 ×10⁻⁶ cm/s and the efflux ratio at 2 h, 3 μM was determined as 0.3.

With `[2H]C([2H])([2H])NC(=O)c1nnc(Nc2cc(C(C)(C)O)ccn2)cc1Nc1nccc(-c2cnn(C)n2)c1OC` [Example 67, 6-{[4-(2-hydroxypropan-2-yl)pyridin-2-yl]amino}-4-{[3-methoxy-4-(2-methyl-2H-1,2,3-triazol-4-yl)pyridin-2-yl]amino}-N—(^2H3)methylpyridazine-3-carboxamide], the IC50 in data set [2] stood at 86 nM. Moreover, in data set [3], the Papp A→B at 2 h, 3 μM came out at 28.6 ×10⁻⁶ cm/s and the efflux ratio at 2 h, 3 μM turned out to be 0.9.

For the compound `[2H]C([2H])([2H])NC(=O)c1nnc(Nc2cc(C)n(C)n2)cc1Nc1nccc(-c2cnn(C)n2)c1OC` [Example 68, 6-[(1,5-dimethyl-1H-pyrazol-3-yl)amino]-4-{[3-methoxy-4-(2-methyl-2H-1,2,3-triazol-4-yl)pyridin-2-yl]amino}-N—(^2H3)methylpyridazine-3-carboxamide], the IC50 in data set [2] was 290 nM. Moreover, in data set [3], the Papp A→B at 2 h, 3 μM was determined as 59.4 ×10⁻⁶ cm/s and the efflux ratio at 2 h, 3 μM turned out to be 0.4.

For the compound `[2H]C([2H])([2H])NC(=O)c1nnc(NC(=O)[C@@H]2C[C@@H]2F)cc1Nc1nc(C)cc(-c2cnn(C)n2)c1OC` [Example 69, 6-((1S,2S)-2-fluorocyclopropane-1-carboxamido)-4-((3-methoxy-6-methyl-4-(2-methyl-2H-1,2,3-triazol-4-yl)pyridin-2-yl)amino)-N-(methyl-d3)pyridazine-3-carboxamide], the IC50 in data set [2] turned out to be 3 nM. Also, in data set [3], the Papp A→B at 2 h, 3 μM worked out at 36.2 ×10⁻⁶ cm/s and the efflux ratio at 2 h, 3 μM came to 0.6.
